How the values were obtained:
[1] = test system: PDE IV; assay: PDE IV inhibition at a single concentration; format: biochemical; settings: human; concentration 100 μM
Text: Assays conducted with standard procedures, e.g. as described by Cortij et al., Br. J. Pharmacol. 108:562, 1993 or Nicholsen CD et al., Trends Pharmacol. Sci. 12:19, 1991 have yielded the following results for compounds figuring among the examples envisaged within the framework of the invention described herein.

[2] = test system: Rolipram receptor (H)PDE4; assay: competition at the rolipram receptor; format: binding, Mouse; settings: ratio IC50 (H)PDE4 / IC50 (L)PDE4
Text: (§1) The following determination of IC50 for inhibition of PDE IV activity and competition at the rolipram receptor, conducted with standard processes, e.g. as described by Duplantier A. J. et al., J. Med. Chem. 39: 120, 1996 and by Thorphy T. J. et al., J Pharmacol. Exp. Ther., 263: 1195, 1992 have yielded the following results for compounds figuring among the examples envisaged within the framework of the invention described herein
(§2) N.C. means value not calculable because of no inhibition at the highest test concentration, however it means low affinity for rolipram receptor.

[3] = biological target: T1, Rolipram receptor (H)PDE4; assay: competition at the rolipram receptor; format: binding, Mouse; settings: origin Mouse brain
T1 construct: IC50(μM) Rolipram receptor (H)PDE4; other: origin Mouse brain
Text: as §1, §2

[4] = test system: PDE4 Activity (L)PDE4; assay: IC50 for inhibition of PDE IV activity; format: biochemical; settings: origin Human
Text: as §1

[5] = test system: PDE1; assay: PDE selectivity, PDE1; format: biochemical, bovine
Text: (§3) These assays have yielded the following results for compounds figuring among the examples envisaged within the framework of the invention described herein.

[6] = test system: PDE3; assay: PDE selectivity, PDE3; format: biochemical, human
Text: as §3

[7] = test system: PDE6; assay: PDE selectivity, PDE6; format: biochemical, bovine
Text: as §3

[8] = test system: PDE4; assay: PDE selectivity, PDE4; format: biochemical, human
Text: as §3

[9] = biological target: PDE5 (Homo sapiens, UniProt O76074); assay: PDE selectivity, PDE5; format: biochemical
Text: as §3

[10] = biological target: PDE2 (Homo sapiens, UniProt O00408); assay: PDE selectivity, PDE2; format: biochemical
Text: as §3

PDE2, sequence (O00408 whole entry): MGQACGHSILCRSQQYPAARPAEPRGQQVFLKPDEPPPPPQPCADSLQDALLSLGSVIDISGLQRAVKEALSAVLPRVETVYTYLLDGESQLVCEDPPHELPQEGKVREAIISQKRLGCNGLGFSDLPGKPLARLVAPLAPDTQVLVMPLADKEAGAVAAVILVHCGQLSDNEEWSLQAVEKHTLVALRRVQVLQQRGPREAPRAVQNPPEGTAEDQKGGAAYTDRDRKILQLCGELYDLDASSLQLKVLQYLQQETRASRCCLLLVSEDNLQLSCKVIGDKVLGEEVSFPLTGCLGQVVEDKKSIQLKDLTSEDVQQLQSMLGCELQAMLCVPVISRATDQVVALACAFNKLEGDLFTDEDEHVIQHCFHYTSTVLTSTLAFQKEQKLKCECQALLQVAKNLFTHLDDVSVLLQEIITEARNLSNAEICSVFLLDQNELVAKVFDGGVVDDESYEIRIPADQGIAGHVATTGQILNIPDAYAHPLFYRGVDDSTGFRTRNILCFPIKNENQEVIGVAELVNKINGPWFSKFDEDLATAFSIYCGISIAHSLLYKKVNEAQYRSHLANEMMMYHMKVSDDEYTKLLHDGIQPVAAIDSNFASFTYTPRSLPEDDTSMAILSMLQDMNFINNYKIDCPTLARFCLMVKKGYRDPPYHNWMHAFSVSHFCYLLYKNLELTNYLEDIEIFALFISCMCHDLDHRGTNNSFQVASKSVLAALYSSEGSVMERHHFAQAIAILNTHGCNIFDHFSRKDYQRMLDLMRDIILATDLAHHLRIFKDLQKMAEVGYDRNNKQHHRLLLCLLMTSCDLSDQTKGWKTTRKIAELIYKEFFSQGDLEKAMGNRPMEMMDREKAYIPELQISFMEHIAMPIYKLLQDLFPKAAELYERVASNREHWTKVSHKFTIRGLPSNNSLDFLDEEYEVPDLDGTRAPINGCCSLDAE

| H/L [2] | IC50 [3] | IC50 [4] | Compound | % inhibition [1] | further results |
| --- | --- | --- | --- | --- | --- |
| >1.15 | > 10 µM | 8.7 µM | COC(=O)C(CC(=O)O)Cc1ccc(OC)c(OC2CCCC2)c1 (centres unmarked) [ST 1504] | 84% | – |
| 7.13 | 9.27 µM | 1.3 µM | COC(=O)/C(=C/c1ccc(OC)c(OC2CCCC2)c1)CCC(=O)O [ST 1977, (4E)-5-[3-(ciclopentyloxy)-4-methoxyphenyl]-4-(methoxycarbonyl)-4-pentenoic acid] | – | – |
| – | – | 6.2 µM | COC(=O)/C(=C/c1ccc(OC)c(OC2CCCC2)c1)CC(=O)O [ST 1503, (3E)-4-[3-(cyclopentyloxy)-4-methoxyphenyl]-3-(methoxycarbonyl)-3-butenoic acid] | – | – |
| 0.74 | 3.5 µM | 4.7 µM | COC(=O)C(CC(=O)NO)Cc1ccc(OC)c(OC2CCCC2)c1 (racemic) [ST 1505, (R,S)-3-methoxycarbonyl-4-(3-cyclopentyloxy-4-methoxyphenyl)butane-hydroxamic acid] | 86% | – |
| – | – | – | COc1ccc(C(=O)CCC(=O)O)cc1OC1CCCC1 [ST 1689, 4-[3-(cyclopentyloxy)-4-methoxyphenyl]-4-oxo-butanoic acid] | – | melting point: 111 to 113 °C |
| 0.51 | 0.615 µM | 1.2 µM | COC(=O)/C(=C/c1ccc(OC)c(OC2CCCC2)c1)CC(=O)NO [ST 1701, methyl (2E)-3-[3-(cyclopentyloxy)-4-methoxyphenyl]-2-[2-(hydroxyamino)-2-oxoethyl]-2-propenoate] | 88% | % PDE inhibition at 100 μM PDE1 (bovine) [5]: 42%; % PDE inhibition at 100 μM PDE3 (human) [6]: 52%; % PDE inhibition at 100 μM PDE6 (bovine) [7]: 58%; % PDE inhibition at 100 μM PDE4 (human) [8]: 94%; inhibition at 100 µM [9]: 30%; inhibition at 100 µM [10]: 16% |

| Compound | H/L [2] | IC50 [3] | IC50 [4] | % inhibition [1] | further results |
| --- | --- | --- | --- | --- | --- |
| COC(=O)C/C(=C\c1ccc(OC)c(OC2CCCC2)c1)C(=O)OC [ST 1945, methyl (3E)-3-methoxycarbonyl-4-(3-cyclopentoxy-4-methoxyphenyl)-3-butenoate] | 0.33 | 0.571 µM | 0.19 µM | – | – |
